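The compound was tested at five concentrations on cells cultured in 96-well plates, with a 48-hour exposure period. GI50 marks 50% less growth. At the TGI there is no net growth.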
Columns and labels:
Assay in all cases: DTP human tumour cell line panel, 48 h
SF-295 CNS = test system: SF-295 CNS
BT-549 breast = test system: BT-549 breast
HCT-116 colon = test system: HCT-116 colon
IGROV1 ovarian = test system: IGROV1 ovarian
A498 renal = test system: A498 renal
SF-539 CNS = test system: SF-539 CNS
HT29 colon = test system: HT29 colon
786-0 renal = test system: 786-0 renal
CAKI-1 renal = test system: CAKI-1 renal
A549 NSCLC = test system: A549 NSCLC
SW-620 colon = test system: SW-620 colon
SF-268 CNS = test system: SF-268 CNS
OVCAR-5 ovarian = test system: OVCAR-5 ovarian
MOLT-4 leukemia = test system: MOLT-4 leukemia
SN12C renal = test system: SN12C renal
NCI/ADR-RES ovarian = test system: NCI/ADR-RES ovarian
PC-3 prostate = test system: PC-3 prostate
HOP-62 NSCLC = test system: HOP-62 NSCLC
DU-145 prostate = test system: DU-145 prostate
HCT-15 colon = test system: HCT-15 colon
OVCAR-3 ovarian = test system: OVCAR-3 ovarian
SK-MEL-5 melanoma = test system: SK-MEL-5 melanoma
UACC-257 melanoma = test system: UACC-257 melanoma
NCI-H23 lung = test system: NCI-H23 lung
UO-31 renal = test system: UO-31 renal
T-47D breast = test system: T-47D breast
HS 578T breast = test system: HS 578T breast
HCC-2998 colon = test system: HCC-2998 colon
MDA-MB-231 breast = test system: MDA-MB-231 breast
EKVX NSCLC = test system: EKVX NSCLC
ACHN renal = test system: ACHN renal
RPMI-8226 leukemia = test system: RPMI-8226 leukemia
U251 CNS = test system: U251 CNS
MALME-3M melanoma = test system: MALME-3M melanoma
K-562 leukemia = test system: K-562 leukemia
M14 melanoma = test system: M14 melanoma
RXF 393 renal = test system: RXF 393 renal
LOX IMVI melanoma = test system: LOX IMVI melanoma
MDA-MB-435 = test system: MDA-MB-435
KM12 colon = test system: KM12 colon
OVCAR-4 ovarian = test system: OVCAR-4 ovarian
OVCAR-8 ovarian = test system: OVCAR-8 ovarian
SK-MEL-28 melanoma = test system: SK-MEL-28 melanoma
NCI-H522 lung = test system: NCI-H522 lung
SNB-75 CNS = test system: SNB-75 CNS
NCI-H226 lung = test system: NCI-H226 lung
TK-10 renal = test system: TK-10 renal
SK-OV-3 ovarian = test system: SK-OV-3 ovarian
COLO 205 colon = test system: COLO 205 colon
SK-MEL-2 melanoma = test system: SK-MEL-2 melanoma
MCF7 breast = test system: MCF7 breast
SNB-19 CNS = test system: SNB-19 CNS
CCRF-CEM leukemia = test system: CCRF-CEM leukemia
NCI-H460 lung = test system: NCI-H460 lung
HOP-92 NSCLC = test system: HOP-92 NSCLC
UACC-62 melanoma = test system: UACC-62 melanoma

NC(N)=N/N=C/c1c(-c2ccc(Cl)c([N+](=O)[O-])c2)nc2ccccn12
GI50 (SF-295 CNS): 1.82 µM
TGI (SF-295 CNS): 3.42 µM
GI50 (BT-549 breast): 0.119 µM
TGI (BT-549 breast): 1.18 µM
GI50 (HCT-116 colon): 0.362 µM
TGI (HCT-116 colon): 1.55 µM
GI50 (IGROV1 ovarian): 1.36 µM
TGI (IGROV1 ovarian): 2.85 µM
GI50 (A498 renal): 5.82 µM
TGI (A498 renal): 14.4 µM
GI50 (SF-539 CNS): 0.122 µM
TGI (SF-539 CNS): 1.53 µM
GI50 (HT29 colon): 1.42 µM
TGI (HT29 colon): > 100 µM
GI50 (786-0 renal): 0.512 µM
TGI (786-0 renal): 1.9 µM
GI50 (CAKI-1 renal): 11.8 µM
TGI (CAKI-1 renal): 42.4 µM
GI50 (A549 NSCLC): 1.63 µM
TGI (A549 NSCLC): 2.99 µM
GI50 (SW-620 colon): 1.46 µM
TGI (SW-620 colon): 3.16 µM
GI50 (SF-268 CNS): 1.35 µM
TGI (SF-268 CNS): 2.93 µM
GI50 (OVCAR-5 ovarian): 1.73 µM
TGI (OVCAR-5 ovarian): 3.21 µM
GI50 (MOLT-4 leukemia): 1.68 µM
TGI (MOLT-4 leukemia): 3.64 µM
GI50 (SN12C renal): 1.87 µM
TGI (SN12C renal): 3.66 µM
GI50 (NCI/ADR-RES ovarian): > 100 µM
TGI (NCI/ADR-RES ovarian): > 100 µM
GI50 (PC-3 prostate): 1.37 µM
TGI (PC-3 prostate): 2.65 µM
GI50 (HOP-62 NSCLC): 1.56 µM
TGI (HOP-62 NSCLC): 2.9 µM
GI50 (DU-145 prostate): 1.94 µM
TGI (DU-145 prostate): 5.6 µM
GI50 (HCT-15 colon): 9.18 µM
TGI (HCT-15 colon): 56.1 µM
GI50 (OVCAR-3 ovarian): 1.59 µM
TGI (OVCAR-3 ovarian): 3.11 µM
GI50 (SK-MEL-5 melanoma): 13.3 µM
TGI (SK-MEL-5 melanoma): 41.3 µM
GI50 (UACC-257 melanoma): 6.76 µM
TGI (UACC-257 melanoma): 31 µM
GI50 (NCI-H23 lung): 1.92 µM
TGI (NCI-H23 lung): 3.95 µM
GI50 (UO-31 renal): 1.71 µM
TGI (UO-31 renal): 3.79 µM
GI50 (T-47D breast): 2.08 µM
TGI (T-47D breast): 5.01 µM
GI50 (HS 578T breast): 24.2 µM
TGI (HS 578T breast): 60.2 µM
GI50 (HCC-2998 colon): 1.5 µM
TGI (HCC-2998 colon): 3.1 µM
GI50 (MDA-MB-231 breast): 1.69 µM
TGI (MDA-MB-231 breast): 3.29 µM
GI50 (EKVX NSCLC): 2.5 µM
TGI (EKVX NSCLC): 13 µM
GI50 (ACHN renal): 11.3 µM
TGI (ACHN renal): 34.9 µM

O=C1CC/C(=C\COc2ccc3ccc(=O)oc3c2)O1
GI50 (SF-295 CNS): 43.5 µM
TGI (SF-295 CNS): > 100 µM
GI50 (RPMI-8226 leukemia): 1.07 µM
TGI (RPMI-8226 leukemia): 17.3 µM
GI50 (BT-549 breast): 10.2 µM
TGI (BT-549 breast): 26.4 µM
GI50 (U251 CNS): 10.3 µM
TGI (U251 CNS): 22.8 µM
GI50 (HCT-116 colon): 6.25 µM
TGI (HCT-116 colon): 22.8 µM
GI50 (IGROV1 ovarian): 4.2 µM
TGI (IGROV1 ovarian): 17.8 µM
GI50 (MALME-3M melanoma): 3.47 µM
TGI (MALME-3M melanoma): 24.4 µM
GI50 (K-562 leukemia): 9.89 µM
TGI (K-562 leukemia): > 100 µM
GI50 (A498 renal): 16.8 µM
TGI (A498 renal): 44 µM
GI50 (SF-539 CNS): 2.62 µM
TGI (SF-539 CNS): 19.2 µM
GI50 (M14 melanoma): 3.28 µM
TGI (M14 melanoma): 13.9 µM
GI50 (RXF 393 renal): 8.41 µM
TGI (RXF 393 renal): 31.9 µM
GI50 (HT29 colon): 3.04 µM
TGI (HT29 colon): 17.3 µM
GI50 (786-0 renal): 2.89 µM
TGI (786-0 renal): 15.9 µM
GI50 (CAKI-1 renal): 1.97 µM
TGI (CAKI-1 renal): 20.6 µM
GI50 (LOX IMVI melanoma): 6.96 µM
TGI (LOX IMVI melanoma): 20.6 µM
GI50 (A549 NSCLC): 24.1 µM
TGI (A549 NSCLC): > 100 µM
GI50 (SW-620 colon): 2.35 µM
TGI (SW-620 colon): 14.9 µM
GI50 (SF-268 CNS): 11.9 µM
TGI (SF-268 CNS): 63 µM
GI50 (MDA-MB-435): 3.41 µM
TGI (MDA-MB-435): 17.5 µM
GI50 (KM12 colon): 10.1 µM
TGI (KM12 colon): 45.2 µM
GI50 (OVCAR-4 ovarian): 4.78 µM
TGI (OVCAR-4 ovarian): 23.7 µM
GI50 (OVCAR-5 ovarian): 17.3 µM
TGI (OVCAR-5 ovarian): 34.8 µM
GI50 (MOLT-4 leukemia): 6.41 µM
TGI (MOLT-4 leukemia): > 100 µM
GI50 (OVCAR-8 ovarian): 16.6 µM
TGI (OVCAR-8 ovarian): 40.8 µM
GI50 (SN12C renal): 10.3 µM
TGI (SN12C renal): 28.8 µM
GI50 (SK-MEL-28 melanoma): 15.3 µM
TGI (SK-MEL-28 melanoma): 32.7 µM
GI50 (NCI/ADR-RES ovarian): 14.9 µM
TGI (NCI/ADR-RES ovarian): 43 µM
GI50 (NCI-H522 lung): 1.76 µM
TGI (NCI-H522 lung): 5.83 µM
GI50 (PC-3 prostate): 1.68 µM
TGI (PC-3 prostate): 18.3 µM
GI50 (HOP-62 NSCLC): 17.6 µM
TGI (HOP-62 NSCLC): 38.2 µM
GI50 (SNB-75 CNS): 12.7 µM
TGI (SNB-75 CNS): 30.2 µM
GI50 (DU-145 prostate): 1.89 µM
TGI (DU-145 prostate): 14.1 µM
GI50 (NCI-H226 lung): 22.4 µM
TGI (NCI-H226 lung): 83.1 µM
GI50 (TK-10 renal): 2.83 µM
TGI (TK-10 renal): 17.7 µM
GI50 (HCT-15 colon): 3.84 µM
TGI (HCT-15 colon): 17.1 µM
GI50 (SK-OV-3 ovarian): 27.8 µM
TGI (SK-OV-3 ovarian): > 100 µM
GI50 (OVCAR-3 ovarian): 4.44 µM
TGI (OVCAR-3 ovarian): 22 µM
GI50 (SK-MEL-5 melanoma): 14.5 µM
TGI (SK-MEL-5 melanoma): 32.7 µM
GI50 (COLO 205 colon): 3.21 µM
TGI (COLO 205 colon): 17.5 µM
GI50 (SK-MEL-2 melanoma): 10.9 µM
TGI (SK-MEL-2 melanoma): 36.8 µM
GI50 (MCF7 breast): 3.61 µM
TGI (MCF7 breast): 33.8 µM
GI50 (UACC-257 melanoma): 13.6 µM
TGI (UACC-257 melanoma): 30 µM
GI50 (SNB-19 CNS): 13.2 µM
TGI (SNB-19 CNS): 36.8 µM
GI50 (CCRF-CEM leukemia): 2.42 µM
TGI (CCRF-CEM leukemia): 13.6 µM
GI50 (NCI-H460 lung): 16.8 µM
TGI (NCI-H460 lung): > 100 µM
GI50 (HOP-92 NSCLC): 10.6 µM
TGI (HOP-92 NSCLC): 25.5 µM
GI50 (NCI-H23 lung): 11.7 µM
TGI (NCI-H23 lung): 30 µM
GI50 (UO-31 renal): 6.41 µM
TGI (UO-31 renal): 21.4 µM
GI50 (T-47D breast): 4.83 µM
TGI (T-47D breast): 27.1 µM
GI50 (HS 578T breast): 11.7 µM
TGI (HS 578T breast): 81.7 µM
GI50 (HCC-2998 colon): 17 µM
TGI (HCC-2998 colon): 35.6 µM
GI50 (MDA-MB-231 breast): 13.8 µM
TGI (MDA-MB-231 breast): 29.4 µM
GI50 (UACC-62 melanoma): 10.8 µM
TGI (UACC-62 melanoma): 24.7 µM
GI50 (EKVX NSCLC): 16.7 µM
TGI (EKVX NSCLC): 46.4 µM
GI50 (ACHN renal): 0.386 µM
TGI (ACHN renal): 2.02 µM
